Key:
HEK-293T cells = experiment: Cell cytotoxicity assay HEK-293T (CellTiter-Glo, 72 hours); format: cell-based; details: Table 3; 72 hours, top concentration of 50 μM; read-out: Cytotox K-293 EC50
How it was run: (§1)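 HEK-293T or Jurkat E6-1 cells plated at 450 cells/well were treated the next day with a 10-point titration from 50 μM top (0.5% DMSO final). After 72 h at 37° C, viability was read by CellTiter-Glo luminescence.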

Jurkat clone E6-1 cells = experiment: Cell cytotoxicity assay Jurkat (CellTiter-Glo, 72 hours); format: cell-based; details: Table 3; 72 hours, top concentration of 50 μM; read-out: Cytotox Jurkat EC50
How it was run: as §1

Compound CC(CO)S(=O)(=O)c1ccc(OC(F)F)c(-c2nn(C)cc2NC(=O)c2cnn3cccnc23)c1 (single isomer, unassigned) [Example 24, N-[3-[2-(difluoromethoxy)-5-(2-hydroxy-1-methyl-ethyl)sulfonyl-phenyl]-1-methyl-pyrazol-4-yl]pyrazolo[1,5-a]pyrimidine-3-carboxamide] has an EC50 (HEK-293T cells) of 22 µM and an EC50 (Jurkat clone E6-1 cells) of 37 µM.

Reference: patent publication US11453671B2, “Pyrazolopyrimidine inhibitors of JAK kinases and uses thereof” (Genentech, Inc., priority 2020, dated 2022)
